Values joined by “and” are separate entries in the source; they are usually repeats but may differ in a detail not shown here. Identical values can stand only once.

The experiment relates to 292921-168-R-J2-PDC complex spheroid viability. In words: Anticancer human tumor 292921-168-R-J2-PDC patient-derived pancreatic carcinoma cell line growth inhibition. The note with it: for viability, T/C: stronger effect = lower value. The method in brief:
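Drug combinations with the LSD1 inhibitor iadademstat tested on tumor cells co-cultured as spheroids with endothelial cells and mesenchymal stem cells. Concentrations descended in half-log increments from clinical Cmax or 10 microM.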

The mark [1] stands for this setting: curve of first compound, second compound 0.1 µM.
[2] abbreviates: curve of first compound, second compound 0.316 µM.
The mark [3] stands for this setting: curve of first compound, second compound 1 µM.
Setting [4] is: curve of first compound, second compound 3.16 µM.
The mark [5] stands for this setting: curve of first compound, second compound 10 µM.
The mark [6] stands for this setting: second compound 0.1 µM, first compound 0.0316 µM.
[7] abbreviates: second compound 0.1 µM, first compound 0.1 µM.
Setting [8] is: second compound 0.316 µM, first compound 0.0316 µM.
[9] abbreviates: second compound 0.316 µM, first compound 0.1 µM.
Setting [10] is: second compound 1 µM, first compound 0.0316 µM.
The mark [11] stands for this setting: second compound 1 µM, first compound 0.1 µM.
Setting [12] is: second compound 3.16 µM, first compound 0.0316 µM.
Setting [13] is: second compound 3.16 µM, first compound 0.1 µM.
[14] abbreviates: second compound 10 µM, first compound 0.0316 µM.
The mark [15] stands for this setting: second compound 10 µM, first compound 0.1 µM.
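Also: seven day compound exposure before luminescent viability read.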
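For viability, T/C in this document: 100% = DMSO vehicle control wells.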

Broadly, the IC50 is the concentration needed to halve the response being measured. Broadly, the viability, T/C is the ratio of treated to control. In the case of `CC[C@@]1(O)C(=O)OCc2c1cc1n(c2=O)Cc2cc3c(CN(C)C)c(O)ccc3nc2-1` + NC1CC1c1ccc(-c2cccc(O)c2)cc1, the IC50 under setting [1] came to 3.22 nM; the IC50 under setting [2] worked out at 2.16 nM; the IC50 under setting [3] stood at 1.63 nM; the IC50 under setting [4] was 2.15 nM; the IC50 under setting [5] amounted to 0.375 nM. The viability, T/C is, setting by setting: (second compound 0.1 µM, first compound 0.000316 µM) 81.3%; (second compound 0.1 µM, first compound 0.001 µM) 78.9%; (second compound 0.1 µM, first compound 0.00316 µM) 48.2%; (second compound 0.1 µM, first compound 0.01 µM) 21.6%; under setting [6], 8.58%; under setting [7], 3.36%. For the same compound, the viability, T/C reads like this: (second compound 0.316 µM, first compound 0.000316 µM) 72.8%; (second compound 0.316 µM, first compound 0.001 µM) 65.3%; (second compound 0.316 µM, first compound 0.00316 µM) 41.9%; (second compound 0.316 µM, first compound 0.01 µM) 21%; under setting [8], 8.47%; under setting [9], 3.37%. Further, the viability, T/C was 61.8% (second compound 1 µM, first compound 0.000316 µM); 56.7% (second compound 1 µM, first compound 0.001 µM); 41.1% (second compound 1 µM, first compound 0.00316 µM); 21.3% (second compound 1 µM, first compound 0.01 µM); 8.54% under setting [10]; 4.7% under setting [11]. The viability, T/C runs as follows: (second compound 3.16 µM, first compound 0.000316 µM) 66.4%; (second compound 3.16 µM, first compound 0.001 µM) 61.9%; (second compound 3.16 µM, first compound 0.00316 µM) 44.2%; (second compound 3.16 µM, first compound 0.01 µM) 17.8%; under setting [12], 8.75%; under setting [13], 3.88%. The viability, T/C is, setting by setting: (second compound 10 µM, first compound 0.000316 µM) 50.7%; (second compound 10 µM, first compound 0.001 µM) 46.7%; (second compound 10 µM, first compound 0.00316 µM) 37.4%; (second compound 10 µM, first compound 0.01 µM) 20.5%; under setting [14], 9.34%; under setting [15], 4.4%.
On to `CC(C)c1c(-c2ccccc2)nc2c(C#N)c[nH]n2c1=O` + NC1CCC(NC2CC2c2ccccc2)CC1, for which the concentration for half-maximal inhibition (IC50) was greater than 10000 nM under setting [1]; greater than 10000 nM under setting [2]; greater than 10000 nM under setting [3]; 9720 nM under setting [4]; 1680 nM under setting [5]. Further, the viability, T/C runs as follows: under setting [6], 63.4%; under setting [7], 67.2%; (second compound 0.1 µM, first compound 0.316 µM) 59.7%; (second compound 0.1 µM, first compound 1 µM) 70%; (second compound 0.1 µM, first compound 3.16 µM) 61.1%; (second compound 0.1 µM, first compound 10 µM) 57%. Further, the viability, T/C is, setting by setting: under setting [8], 63.1%; under setting [9], 60.1%; (second compound 0.316 µM, first compound 0.316 µM) 63.6%; (second compound 0.316 µM, first compound 1 µM) 64.2%; (second compound 0.316 µM, first compound 3.16 µM) 64.2%; (second compound 0.316 µM, first compound 10 µM) 51.3%. The viability, T/C under setting [10] is 52.7%; the viability, T/C under setting [11] is 55.4%; the viability, T/C (second compound 1 µM, first compound 0.316 µM) is 54.2%; the viability, T/C (second compound 1 µM, first compound 1 µM) is 57.5%; the viability, T/C (second compound 1 µM, first compound 3.16 µM) is 57.4%; the viability, T/C (second compound 1 µM, first compound 10 µM) was 51.6%. The viability, T/C under setting [12] was 55.7%; the viability, T/C under setting [13] is 55.3%; the viability, T/C (second compound 3.16 µM, first compound 0.316 µM) is 52.8%; the viability, T/C (second compound 3.16 µM, first compound 1 µM) is 56.1%; the viability, T/C (second compound 3.16 µM, first compound 3.16 µM) was 49%; the viability, T/C (second compound 3.16 µM, first compound 10 µM) is 49.9%. The viability, T/C is, setting by setting: under setting [14], 52.9%; under setting [15], 53.8%; (second compound 10 µM, first compound 0.316 µM) 53.2%; (second compound 10 µM, first compound 1 µM) 54.6%; (second compound 10 µM, first compound 3.16 µM) 45.6%; (second compound 10 µM, first compound 10 µM) 40%.
Consider `CC(C)c1c(-c2ccccc2)nc2c(C#N)c[nH]n2c1=O`, for which the viability, T/C (compound 0.0316 µM) is 100% and 101%; the viability, T/C (compound 0.1 µM) is 97.6% and 101%; the viability, T/C (compound 0.316 µM) is 102% and 93.6%; the viability, T/C (compound 1 µM) is 106% and 98.2%; the viability, T/C (compound 3.16 µM) was 102% and 105%; the viability, T/C (compound 10 µM) was 65.2% and 70.4%. For the same compound, where the note is “curve of compound”, the IC50 is greater than 10000 nM.
Turning to `CCN(c1cc(-c2ccc(CN3CCOCC3)cc2)cc(C(=O)NCc2c(C)cc(C)[nH]c2=O)c1C)C1CCOCC1`, the viability, T/C is 100% and 99.5% (compound 0.00949 µM); 115% and 103% (compound 0.03 µM); 99% (compound 0.0949 µM); 85.1% and 80.7% (compound 0.3 µM); 63.7% and 67.6% (compound 0.949 µM); 22.2% and 24.3% (compound 3 µM). Also, under “curve of compound”, the IC50 was 1350 nM and 1460 nM.
